Results as given in patent US9771378B2 (Denali Therapeutics, Inc., priority 2014, dated 2017).

Tested on: Aβ42 (human neuroglioma H4 cells expressing human wild type APP751)
Experiment: In vitro cell screening assay with sandwich ELISA quantification of Aβ42 peptide
Format: cell-based
Conditions: H4 cells stably expressing human wild type APP751; Pro293 chemically defined medium; compounds 0.003-10 μM; incubated overnight (16-18 h); supernatant Aβ42 by sandwich ELISA; normalized to DMSO and DAPT; read-out: Aβ42 H4 Prot Fre IC50
Outline: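 Aβ42 in supernatants was quantified by sandwich ELISA with C-terminal-specific capture and 4G8-HRP detection, absorbance at 450 nm. Stable APP751-expressing human H4 cells received compound at 0.003-10 μM (0.33% DMSO) overnight (16-18 h). IC50 was derived from percent-of-DMSO-control data by nonlinear variable-slope fit.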

Row | SMILES | IC50 [nM]
1 | COc1cc(Nc2ncc3c(n2)N(C)C(c2cc(F)c(F)cc2F)CO3)ccc1-n1cnc(C)c1 (single isomer, unassigned; (-)) [Example 97A] | 244
2 | COc1cc(Nc2ncc3c(n2)N(C)C(c2cc(F)cc(F)c2)CO3)ccc1-n1cnc(C)n1 (single isomer, unassigned; (+)) [Example 244A] | 23
3 | COc1cc(Nc2ncc3c(n2)N(C)C(c2cc(F)ccc2C(F)(F)F)CO3)ccc1-n1cnc(C)c1 (single isomer, unassigned; (-)) [Example 105A] | 88
4 | COc1cc(Nc2ncc3c(n2)N(C)C(C)(C)CO3)cnc1-n1cnc(C)c1 [Example 261] | 139
5 | COc1nc(Nc2ncc3c(n2)N(C)C(c2cc(F)cc(F)c2)CO3)ccc1-c1cnn(C)c1 (single isomer, unassigned; (-)) [Example 184A] | > 3000
6 | COc1cc(Nc2ncc3c(n2)N(C)C2(CO3)CC(F)(F)C2)ccc1-n1cnc(C)c1 [Example 276] | 56
7 | Cc1cn(-c2ccc(Nc3ncc4c(n3)N(C)C(c3ccc(F)cc3C(F)(F)F)CO4)cc2F)cn1 (single isomer, unassigned; (-)) [Example 99B] | 1040
8 | COc1ccc(C2COc3cnc(Nc4ccc(-n5cnc(C)c5)c(OC)c4)nc3N2C)c(C)c1 (single isomer, unassigned; (-)) [Example 199B] | 95
9 | COc1cc(Nc2ncc3c(n2)N(C)C(C(F)(F)F)CO3)ccc1-n1cnc(C)n1 (single isomer, unassigned; (+)) [Example 242B] | 1860
10 | COc1cc(Nc2ncc3c(n2)N(C)C(c2ccccc2Cl)CO3)ccc1-n1cnc(C)c1 (single isomer, unassigned; (+)) [Example 51B] | 58
11 | Cc1cn(-c2ccc(Nc3ncc4c(n3)N(C)C(C)CO4)cc2C#N)cn1 (single isomer, unassigned; (+)) [Example 205A, (+)-5-((7,8-dimethyl-7,8-dihydro-6H-pyrimido [5,4-b] [1, 4]oxazin-2-yl)amino)-2-(4-methyl-1H-imidazol-1-yl) benzonitrile] | 231
12 | Cc1cn(-c2ccc(Nc3ncc4c(n3)N(C)C(c3cc(F)c(F)cc3Cl)CO4)cc2F)cn1 (single isomer, unassigned; (-)) [Example 169B] | 2260
13 | COc1cc(Nc2ncc3c(n2)N2CCCC2CO3)ccc1-n1cnc(C)c1 (single isomer, unassigned; (+)) [Example 290B, (+)-N-(3-methoxy-4-(4-methyl-1H-imidazol-1-yl)phenyl)-6a, 7,8,9-tetrahydro-6H-pyrimido [5,4-b] pyrrolo [1,2-d] [1, 4] oxazin-2-amine] | 151
14 | Cc1cn(-c2ccc(Nc3ncc4c(n3)N(C)C(c3cc(F)cc(F)c3)CO4)nc2C#N)cn1 (single isomer, unassigned; (-)) [Example 192A, (−)-6-((7-(3,5-difluorophenyl)-8-methyl-7,8-dihydro-6H-pyrimido [5,4-b] [1, 4]oxazin-2-yl)amino)-3-(4-methyl-1H-imidazol-1-yl) picolinonitrile] | > 3000
15 | Cc1cc(-c2ccc(Nc3ncc4c(n3)N(C)C(c3cc(F)cc(F)c3)CO4)cc2F)ccn1 (racemic) [Example 41] | 63
16 | COc1cc(Nc2ncc3c(n2)N(C)C(C2CCOCC2)CO3)ccc1-n1cnc(C)c1 (racemic) [Example 50] | 173
17 | COc1cc(Nc2ncc3c(n2)N(C)C(c2ccc(F)cc2F)CO3)ccc1-n1cnc(C)c1 (racemic) [Example 48] | 36
18 | COc1cc(Nc2ncc3c(n2)N(C)C(C(F)(F)F)CO3)ccc1-n1cnc(Cl)c1 (single isomer, unassigned; (-)) [Example 228B] | 14
19 | COc1cc(Nc2ncc3c(n2)N2CCC(F)(F)C2CO3)ccc1-n1cnc(C)c1 (single isomer, unassigned; (-)) [Example 304A, (−)-7,7-difluoro-N-(3-methoxy-4-(4-methyl-1H-imidazol-1-yl)phenyl)-6a, 7,8,9-tetrahydro-6H-pyrimido [5,4-b] pyrrolo [1,2-d] [1, 4] oxazin-2-amine] | 274
